# Experimental data as given in patent US20070122344A1, “Intraoperative determination of nerve location” (University of Rochester Medical Center Office of Technology …, priority 2005, published 2007).
# “Also recorded” adds a separate entry of the source. Like-named read-outs stand apart in the source and are kept apart here.
# Assays:
# mammals = details: cited from earlier work
# cavernous nerves = assay: NIRF intraoperative imaging of rat cavernous nerves after injection of ICG into the crura; type: in vivo; details: rats
# From the text: The area was examined for retrograde axonal transport at different time points, using a NIRF intraoperative imaging system (SPY®, Novadaq Technologies Inc., Mississauga, Ontario, Canada) that illuminates tissues with a 805 nm laser and captures images with a camera sensitive to infrared fluorescence. Near infrared microscopy and conventional histology were used to confirm the macroscopically identified fluorescent structures. […] (These were specific time points at which examinations were made. […] The fluorescent nerves were then excised.
# [1] = cited from earlier work
# [2] = mammals, several months after the treatment
Compound,neuronal toxicity (mammals; [2]),neuronal toxicity (mammals; used in mammals),"identification of the cavernous nerves by fluorescence (cavernous nerves; ICG injected into both crura, examined at 6, 8, 12, 18, 24 and 36 hours post injection, NIRF imaging (SPY))","fluorescence of the cavernous nerves at longer post-injection periods (cavernous nerves; ICG injected into crura, e.g. 30 days post-injection)","distribution ([1]; after intravenous injection, with normal vascular permeability)",excretion ([1]; after intravenous injection),metabolism in the body ([1]; after intravenous injection),enterohepatic recirculation ([1]; in vivo),reabsorption from the intestine ([1]; in vivo)
Fast Blue,without evidence of neuronal toxicity,low evidence of neuronal toxicity,,,,,,,
"CC1(C)C(/C=C/C=C/C=C/C=C2\N(CCCCS(=O)(=O)O)c3ccc4ccccc4c3C2(C)C)=[N+](CCCCS(=O)(=O)[O-])c2ccc3ccccc3c21 [ICG, indocyanine green]",without evidence of neuronal toxicity,low evidence of neuronal toxicity,permitted identification of the nerves; also recorded: nerves were identified in situ,not detectable,remains intravascular,excreted exclusively by the liver,not metabolized,does not undergo enterohepatic recirculation,not reabsorbed
N=C(N)c1ccc(/C=C/c2ccc(C(=N)N)cc2O)cc1 [Fluorogold],without evidence of neuronal toxicity,low evidence of neuronal toxicity,,,,,,,
